Laboratory results: patent US20240299562A1 (priority 2020, published 2024)
Where “and” joins values, the source holds several entries; their conditions need not be identical. Identical values can stand only once. Like-named read-outs stand apart in the source and are kept apart here. *1 amine or outer side, *2 acyl side, *3 side chain or, on linkers, in order; H or OH if unused. Where a SMILES comes first, the peptide text is derived from it. [ ]: non-standard residue; d: D form. The star is where a group is joined. X1 = CO[C@@H](C1CCCN1[*:1])[C@@H](C)C(=O)[*:2]; Dil = CC[C@H](C)[C@H](NC)[C@@H](CC(=O)O)OC; PABC = O=C(OCc1ccc(N[*:1])cc1)[*:2]; Phosphonoacetyl = O=C(CP(=O)(O)O)*; X2 = C[C@@H](N*)[C@@H](O)c1ccccc1; NMeV = CN[C@H](C(=O)O)C(C)C

Assays:
HME-1 cells = assay: WST-1 cell viability, normal HME-1 cells; assay type: cell-based, human; conditions: for IC50: read-out: Absolute IC50
Description: (§1) All commercial cell lines were purchased at ATCC (LGC Standards SARL, France). Cells were seeded in 96-well plates according to their optimal seeding density, varying between 5.000 and 10.000 cells/well. After attachment overnight, 10-point serial titrations (1:5) were prepared in their equivalent complete media as recommended by ATCC, starting from the 10 mM stock solutions. For doxorubicin comprising prodrugs dilutions started from 100 μM, while for the parent compound doxorubicin dilutions started at 10 μM. […] Seventy-two hours later, compounds were removed together with the supernatants and cells were washed once with PBS to remove excess drugs.
(§2) The WST-1 assay for cell proliferation and viability (Roche, Switzerland) was performed according to manufacturer's protocol. Absorbances were measured at 4 hrs using a Perkin Elmer Ensight multiplate reader, equipped with Kaleido 2.0 software (Perkin Elmer, USA). Cell viability was expressed as a percentage compared to non-treated cells. Absolute IC50 values were extrapolated from a non-linear fitting following the Sigmoidal-4PL regression method using Graphpad Prism 7.0. Likewise, maximal efficacy was determined as 100% minus the cell viability determined when cells are incubated in the presence of a compound. For instance, if 20% of the cells survive incubation in the presence of a compound, then the maximal efficacy of that compound is 100%-20%=80%.
(§3) Selectivity indices (SI) were defined as the ratio of the concentration of drug required to kill 50% of the cells in normal (control, non-cancer) cells, divided by the concentration required to exert the same efficacy in tumor cells: SI=IC50 (control cell)/IC50 (cancer cell), or SI=^HME-1IC50/cancer IC50.

MIA PaCa-2 cells = assay: WST-1 cell viability, MIA PaCa-2 pancreatic cancer cells; assay type: cell-based
Description: as §1, §2, §3

A-172 cells = assay: WST-1 cell viability, A-172 glioblastoma cells; assay type: cell-based; conditions: for IC50: read-out: Absolute IC50
Description: as §1, §2, §3

U-87 MG cells = assay: WST-1 cell viability, U-87 MG glioblastoma cells; assay type: cell-based; conditions: for IC50: read-out: Absolute IC50
Description: as §1, §2, §3

MDA-MB-231 cells = assay: WST-1 cell viability, MDA-MB-231 triple negative breast cancer cells; assay type: cell-based; conditions: for IC50: read-out: Absolute IC50
Description: as §1, §2, §3

MDA-MB-468 cells = assay: WST-1 cell viability, MDA-MB-468 triple negative breast cancer cells; assay type: cell-based
Description: as §1, §2, §3

A2058 cells = assay: WST-1 cell viability, A2058 melanoma cells; assay type: cell-based; conditions: for IC50: read-out: Absolute IC50
Description: as §1, §2, §3

NCI-1299 cells = assay: WST-1 cell viability, NCI-H1299 lung cancer cells; assay type: cell-based
Description: as §1, §2, §3

NCI-H292 cells = assay: WST-1 cell viability, NCI-H292 lung cancer cells; assay type: cell-based
Description: as §1, §2, §3

[1] = system: U87 MG glioblastoma cells subcutaneously implanted in nude NMRI mice; assay: In vivo activity of PhAc-ALLP-Dox on U87 MG glioblastoma xenograft; parameters: species or system mouse; conditions: 5 mg/kg iv, once per week
Description: The in vivo efficacy of PhAc-ALLP-Dox was tested in a mouse GBM model. U87 MG glioblastoma cells were subcutaneously (SC) implanted in nude NMRI mice. In total, 32 adult (9-10 weeks old) nude female NMRI mice (Janvier, France) were subjected to SC tumor cell grafting in the right flank. In total, 5×10^6 U87 MG cells resuspended in PBS plus Matrigel (1:1) were injected in 200 uL final volume. As soon as the tumors were palpable and reached the volume of 200 mm3 the treatment was started. At day zero, mice were randomly divided into 4 groups, based on the tumor volume, in order to have the following experimental sub-cohorts: • control group receiving the vehicle (PBS pH7.2) with a dose of 5 ml/kg, intravenously (iv), once per week (QW); • PhAc-ALLP-Dox (30 mg/kg iv, QW); • PhAc-ALGP-Dox (154 mg/kg iv, QW); • Dox (5 mg/kg iv, QW).
Treatments were performed once per week for a total of four tail vein administrations/injections (on days 1, 7, 14 and 21). One extra week of observation followed the active treatment phase. During the experiment, tumor volume was measured two times a week and was assessed three-dimensionally with a digital caliper (Mitutoyo, Illinois) using the following formula:
V=4/3π×[(d/2)^2×(D/2)], where d is the minor tumor axis and D is the major tumor axis.

[2] = system: hiPSC-derived astrocytes (iAstro); assay: WST-1 cell viability, hiPSC-derived astrocytes (iAstro); assay type: cell-based, human; conditions: iAstro normal astrocytes, 72 hrs
Description: as §1, §2, §3
hiPSC-derived astrocytes were purchased from Tempo Biosciences (iAstro™). Prior to use, six-well plates were coated with 1 ml GFR Matrigel (1:100˜0.1 mg/ml, Corning #356231) and allowed to polymerize at 37° C. overnight. Three days before assaying, cells were defrosted and seeded onto the GFR Matrigel in iAstro medium, and allowed to recover from defrosting for 48 hrs. The recovery was aided using RevitaCell™ Supplement during the first 24 hrs. After morphological inspection, cells were transferred to 96-well plates and 4-well microscopy vessels (Millipore), coated with Poly-L-lysine (50 μg/ml, P2533, Sigma Aldrich) and mouse laminin (4 ng/ml, L2020, Sigma Aldrich), using StemPro Accutase reagent (Invitrogen). Following overnight recovery, iAstro's were exposed to the same treatment protocol described above.

COc1cccc2c1C(=O)c1c(O)c3c(c(O)c1C2=O)C[C@@](O)(C(=O)CO)C[C@@H]3O[C@H]1C[C@H](N)[C@H](O)[C@H](C)O1 [Doxorubicin, reference compound]
SI = HME-1 IC50/cancer IC50 (HME-1 cells; HME-1 normal cells against themselves (Table 3)): 1.00
IC50 (HME-1 cells; Homo sapiens, HME1, HME-1 normal cells, 72 hrs continuous drug exposure, WST-1 (Table 1)): 40 nM
IC50 (MIA PaCa-2 cells; Homo sapiens, MIA PaCa-2 (PaC), 72 hrs, WST-1 (Table 1), read-out: Absolute IC50): 100 nM
cytotoxicity at 100 µM (MIA PaCa-2 cells; Homo sapiens, MIA PaCa-2 (PaC), 72 hrs, WST-1 (Table 2), read-out: Maximal efficacy, cytotoxicity (%) at 100 μM): 94.4%
SI = HME-1 IC50/cancer IC50 (MIA PaCa-2 cells; MIA PaCa-2 (PaC) vs HME-1 (Table 3)): 0.44
SI = HME-1 IC50/cancer IC50 (A-172 cells; A-172 (GBM) vs HME-1 (Table 3)): 0.01
cytotoxicity at 100 µM (A-172 cells; Homo sapiens, A 172, 72 h, read-out: Maximal efficacy, cytotoxicity (%) at 100 μM): 89.9%
IC50 (A-172 cells; Homo sapiens, A-172 (GBM), 72 hrs, WST-1 (Table 1)): 3360 nM
cytotoxicity at 100 µM (U-87 MG cells; Homo sapiens, U-87 MG, 72 h, read-out: Maximal efficacy, cytotoxicity (%) at 100 μM): 71.8%
IC50 (U-87 MG cells; Homo sapiens, U-87 MG (GBM), 72 hrs, WST-1 (Table 1)): 70 nM
SI = HME-1 IC50/cancer IC50 (U-87 MG cells; U-87 MG (GBM) vs HME-1 (Table 3)): 0.59
cytotoxicity at 100 µM (MDA-MB-231 cells; Homo sapiens, MDA-MB-231, 72 h, read-out: Maximal efficacy, cytotoxicity (%) at 100 μM): 91.5%
IC50 (MDA-MB-231 cells; Homo sapiens, MDA-MB-231 (TNBC), 72 hrs, WST-1 (Table 1)): 120 nM
SI = HME-1 IC50/cancer IC50 (MDA-MB-231 cells; MDA-MB-231 (TNBC) vs HME-1 (Table 3)): 0.38
IC50 (MDA-MB-468 cells; Homo sapiens, MDA-MB-468 (TNBC), 72 hrs, WST-1 (Table 1), read-out: Absolute IC50): < 10 nM
cytotoxicity at 100 µM (MDA-MB-468 cells; Homo sapiens, MDA-MB-468 (TNBC), 72 hrs, WST-1 (Table 2), read-out: Maximal efficacy, cytotoxicity (%) at 100 μM): 95.5%
SI = HME-1 IC50/cancer IC50 (MDA-MB-468 cells; MDA-MB-468 (TNBC) vs HME-1 (Table 3)): 12.64
SI = HME-1 IC50/cancer IC50 (A2058 cells; A2058 (Melanoma) vs HME-1 (Table 3)): 0.11
cytotoxicity at 100 µM (A2058 cells; Homo sapiens, A2058, 72 h, read-out: Maximal efficacy, cytotoxicity (%) at 100 μM): 97%
IC50 (A2058 cells; Homo sapiens, A2058 (Melanoma), 72 hrs, WST-1 (Table 1)): 410 nM
IC50 (NCI-1299 cells; Homo sapiens, NCI-H1299, NCI-1299 (NSCLC), 72 hrs, WST-1 (Table 1), read-out: Absolute IC50): 30 nM
cytotoxicity at 100 µM (NCI-1299 cells; Homo sapiens, NCI-H1299, NCI-1299 (NSCLC), 72 hrs, WST-1 (Table 2), read-out: Maximal efficacy, cytotoxicity (%) at 100 μM): 92.9%
SI = HME-1 IC50/cancer IC50 (NCI-1299 cells; NCI-1299 (NSCLC) vs HME-1 (Table 3)): 1.33
IC50 (NCI-H292 cells; Homo sapiens, NCI-H292 (NSCLC), 72 hrs, WST-1 (Table 1), read-out: Absolute IC50): 30 nM
cytotoxicity at 100 µM (NCI-H292 cells; Homo sapiens, NCI-H292 (NSCLC), 72 hrs, WST-1 (Table 2), read-out: Maximal efficacy, cytotoxicity (%) at 100 μM): 90.4%
SI = HME-1 IC50/cancer IC50 (NCI-H292 cells; NCI-H292 (NSCLC) vs HME-1 (Table 3)): 1.62
Tumor growth [1]: significantly reduced tumor growth

CC[C@H](C)[C@@H]([C@@H](CC(=O)N1CCCC1[C@H](OC)[C@@H](C)C(=O)N[C@H](C)[C@@H](O)c1ccccc1)OC)N(C)C(=O)[C@@H](NC(=O)[C@H](C(C)C)N(C)C(=O)OCc1ccc(NC(=O)[C@@H]2CCCN2C(=O)[C@H](CC(C)C)NC(=O)[C@H](CC(C)C)NC(=O)[C@H](C)NC(=O)CP(=O)(O)O)cc1)C(C)C (some centres unmarked) [PhAc-ALLP-PABC-MMAE] (Phosphonoacetyl-ALLP[PABC][NMeV]V[Dil][X1]-X2)
Toxicity compared to MMAE on mammary epithelial (HME-1) cells (HME-1 cells; HME-1 normal cells): not significantly different
IC50 (HME-1 cells; HME-1 normal cells, 72 hrs, WST-1 (Table 4)): 10 nM
Maximal efficacy (HME-1 cells; HME-1 normal cells, 72 hrs, WST-1, cytotoxicity at highest concentration (Table 5)): 99.5%
SI = HUVEC IC50 / cancer IC50 (A-172 cells; A-172 (GBM), * towards HUVEC cells (Table 6)): *1.9
SI = iAstro IC50 / cancer IC50 (A-172 cells; A-172 (GBM), ** towards hiPSCs (iAstro) (Table 6)): **>500
SI = normal IC50 / cancer IC50 (A-172 cells; A-172 (GBM), selectivity towards HME-1 cells (Table 6)): 0.1
IC50 (A-172 cells; A-172 (GBM), 72 hrs, WST-1 (Table 4)): 90 nM
Maximal efficacy (A-172 cells; A-172 (GBM), 72 hrs, WST-1 (Table 5)): 97.4%
Selectivity index determined on HUVECs, GBM (A-172 cells; GBM indication as a whole (A-172 and U-87 MG), vs HUVEC): 2.2
Selectivity index towards hiPSC-derived astrocytes, GBM (A-172 cells; GBM indication as a whole (A-172 and U-87 MG), vs iAstro): > 10
SI = HUVEC IC50 / cancer IC50 (U-87 MG cells; U-87 MG (GBM), * towards HUVEC cells (Table 6)): *2.4
SI = iAstro IC50 / cancer IC50 (U-87 MG cells; U-87 MG (GBM), ** towards hiPSCs (iAstro) (Table 6)): **>500
SI = normal IC50 / cancer IC50 (U-87 MG cells; U-87 MG (GBM), selectivity towards HME-1 cells (Table 6)): 0.1
IC50 (U-87 MG cells; U-87 MG (GBM), 72 hrs, WST-1 (Table 4)): 70 nM
Maximal efficacy (U-87 MG cells; U-87 MG (GBM), 72 hrs, WST-1 (Table 5)): 86.6%
SI = normal IC50 / cancer IC50 (MDA-MB-231 cells; MDA-MB-231 (TNBC), selectivity towards HME-1 cells (Table 6)): 0.2
IC50 (MDA-MB-231 cells; MDA-MB-231 (TNBC), 72 hrs, WST-1 (Table 4)): 40 nM
Maximal efficacy (MDA-MB-231 cells; MDA-MB-231 (TNBC), 72 hrs, WST-1 (Table 5)): 77.6%
SI = normal IC50 / cancer IC50 (A2058 cells; A2058 (Melanoma), selectivity towards HME-1 cells (Table 6)): 0.3
IC50 (A2058 cells; A2058 (Melanoma), 72 hrs, WST-1 (Table 4)): 30 nM
Maximal efficacy (A2058 cells; A2058 (Melanoma), 72 hrs, WST-1 (Table 5)): 95.2%
IC50 ([2]; WST-1 (Table 4), read-out: Absolute IC50): > 500 nM
Maximal efficacy ([2]; WST-1 (Table 5)): 2% and 1.7%
